From patent US20090209492A1, “Lipase Inhibitors” (TRUSTEES OF TUFTS COLLEGE, priority 2004, published 2009)

Biological target: T1, endothelial lipase (Homo sapiens, UniProt Q9Y5X9)
T1 sequence (Q9Y5X9 21-500): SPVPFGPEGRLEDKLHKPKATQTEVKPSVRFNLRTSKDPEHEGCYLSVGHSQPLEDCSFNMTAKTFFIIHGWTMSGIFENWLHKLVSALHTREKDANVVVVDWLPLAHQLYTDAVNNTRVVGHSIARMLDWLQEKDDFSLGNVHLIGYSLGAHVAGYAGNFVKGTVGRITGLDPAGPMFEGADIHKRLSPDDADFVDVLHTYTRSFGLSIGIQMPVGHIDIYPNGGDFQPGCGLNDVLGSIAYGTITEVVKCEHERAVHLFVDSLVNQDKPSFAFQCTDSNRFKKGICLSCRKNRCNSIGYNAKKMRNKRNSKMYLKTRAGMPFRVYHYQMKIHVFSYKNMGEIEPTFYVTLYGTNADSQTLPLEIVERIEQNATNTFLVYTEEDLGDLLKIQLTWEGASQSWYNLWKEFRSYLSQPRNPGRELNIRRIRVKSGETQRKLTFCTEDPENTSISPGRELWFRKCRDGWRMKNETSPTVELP
Test: Endothelial lipase inhibiting activity of boronic acids
Format: biochemical
Details: for inhibition at 50 µM: 50 micromolar solution of each compound; for IC50: endothelial lipase
Experimental: The endothelial lipase inhibiting activity of various aliphatic boronic acids was tested.
The endothelial lipase inhibiting activity of various aromatic boronic acids was tested.

Row | Compound | inhibition at 50 µM (aliphatic boronic acids) | inhibition at 50 µM (aromatic boronic acids) | other results
1 | CCCCCCCCCCCCCCCB(O)O | 90% |  | 
2 | C=CCCCB(O)O | 72% |  | IC50 (aliphatic boronic acids): 26 µM
3 | CCCCCB(O)O | 42% |  | 
4 | CCCCCCB(O)O | 53% |  | 
5 | CCCCC/C=C/B(O)O | 63% |  | 
6 | CC(=O)c1ccc(B(O)O)cc1 |  | 80% | IC50 (aromatic boronic acids): 26 µM
7 | OB(O)C1CCCCC1 |  | 1% | 

The next lines start with results.

Row | inhibition at 50 µM (aliphatic boronic acids) | inhibition at 50 µM (aromatic boronic acids) | Compound | other results
8 | 89% |  | CCCCCCCCCCCCCCB(O)O | IC50 (aliphatic boronic acids): 1 µM
9 | 62% |  | CCCCCCCCCCCCCCCCB(O)O | 
10 | 77% |  | CCCCCC/C=C/B(O)O | 
11 | 82% |  | CCCCCCC/C=C/B(O)O | 
12 | 9% |  | CC(C)CB(O)O | 
13 |  | 83% | CCc1ccc(B(O)O)cc1 | IC50 (aromatic boronic acids): 11 µM
14 |  | 88% | Cc1ccc(B(O)O)cc1 | IC50 (aromatic boronic acids): 17 µM
15 |  | 60% | O=Cc1ccc(B(O)O)cc1 | 
16 |  | 10% | OB(O)Cc1ccccc1 | 
17 |  | 7% | OB(O)C1CCCC1 | 
